This is an account of results in patent US11753395B2 (Kinnate Biopharma Inc., priority 2021, dated 2023).

Where only a bound is given, the exact number is not on record here.

One experiment concerns the target T1, MET (Homo sapiens, UniProt P08581).
T1 construct: purchased Carna Biosciences 08-151
The experiment in a line: MET Mobility Shift Assay. The following applies: biochemical assay IC50; 100 μM ATP, 60 minute kinase reaction. The essentials: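 IC50s come from inhibition of substrate-to-phosphopeptide conversion, read by electrophoretic mobility shift. Reaction: 100 μM ATP, 1.5 μM 5-FAM peptide, 0.625 nM MET, 10 mM MgCl2, 60 min, after a 30 min room-temperature enzyme pre-incubation, quenched with EDTA.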

Another experiment concerns the target T2, MET D1228N (Homo sapiens, UniProt P08581, D1228N).
T2 construct: purchased Signalchem M52-12IG
The experiment in a line: MET D1228N Mobility Shift Assay. The following applies: biochemical assay IC50; 100 μM ATP, 60 minute kinase reaction. Put shortly: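 Microfluidic electrophoresis quantified phosphorylated versus unphosphorylated 5-FAM-KKKKEEIYFFF peptide (1.5 μM) after a 60 min reaction with 100 μM ATP. MET D1228N (0.313 nM) in 50 mM HEPES, 10 mM MgCl2, 2 mM DTT was preincubated 30 min; IC50 fitted to conversion inhibition.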

A further experiment deals with T3, Ba/F3-TPR-MET cells (Homo sapiens, UniProt P08581).
T3 construct: fused on or other part: P12270 (Nucleoprotein TPR)
The experiment in a line: CellTiter-Glo Cell Viability Assay, Ba/F3-TPR-MET. The format is cell-based. The following applies: 72 hours. Put shortly: (§1)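 IC50 values come from curve-fitted luminescence. Viable-cell ATP was read by CellTiter-Glo 2.0 after a 72 h, 37 °C incubation of 3000 TPR-MET or D1228N-mutant Ba/F3 cells per well. Compounds were tested as a 9-point, 3-fold series with 0.1% DMSO final.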
In general terms: Cellular ATP, detected with luciferase, serves as a proxy for viable cell number.

For experiment [1], the target named is T4, Ba/F3-TPR-MET-D1228N cells (Homo sapiens, UniProt P08581, D1228N, cells depend on it).
T4 construct: fused on or other part: P12270 (Nucleoprotein TPR)
The experiment can be described thus: CellTiter-Glo Cell Viability Assay, Ba/F3-TPR-MET-D1228N. The format is cell-based. The following applies: 72 hours. The essentials: as §1

T4 sequence (P08581 whole entry D1228N, the tested form may be a part): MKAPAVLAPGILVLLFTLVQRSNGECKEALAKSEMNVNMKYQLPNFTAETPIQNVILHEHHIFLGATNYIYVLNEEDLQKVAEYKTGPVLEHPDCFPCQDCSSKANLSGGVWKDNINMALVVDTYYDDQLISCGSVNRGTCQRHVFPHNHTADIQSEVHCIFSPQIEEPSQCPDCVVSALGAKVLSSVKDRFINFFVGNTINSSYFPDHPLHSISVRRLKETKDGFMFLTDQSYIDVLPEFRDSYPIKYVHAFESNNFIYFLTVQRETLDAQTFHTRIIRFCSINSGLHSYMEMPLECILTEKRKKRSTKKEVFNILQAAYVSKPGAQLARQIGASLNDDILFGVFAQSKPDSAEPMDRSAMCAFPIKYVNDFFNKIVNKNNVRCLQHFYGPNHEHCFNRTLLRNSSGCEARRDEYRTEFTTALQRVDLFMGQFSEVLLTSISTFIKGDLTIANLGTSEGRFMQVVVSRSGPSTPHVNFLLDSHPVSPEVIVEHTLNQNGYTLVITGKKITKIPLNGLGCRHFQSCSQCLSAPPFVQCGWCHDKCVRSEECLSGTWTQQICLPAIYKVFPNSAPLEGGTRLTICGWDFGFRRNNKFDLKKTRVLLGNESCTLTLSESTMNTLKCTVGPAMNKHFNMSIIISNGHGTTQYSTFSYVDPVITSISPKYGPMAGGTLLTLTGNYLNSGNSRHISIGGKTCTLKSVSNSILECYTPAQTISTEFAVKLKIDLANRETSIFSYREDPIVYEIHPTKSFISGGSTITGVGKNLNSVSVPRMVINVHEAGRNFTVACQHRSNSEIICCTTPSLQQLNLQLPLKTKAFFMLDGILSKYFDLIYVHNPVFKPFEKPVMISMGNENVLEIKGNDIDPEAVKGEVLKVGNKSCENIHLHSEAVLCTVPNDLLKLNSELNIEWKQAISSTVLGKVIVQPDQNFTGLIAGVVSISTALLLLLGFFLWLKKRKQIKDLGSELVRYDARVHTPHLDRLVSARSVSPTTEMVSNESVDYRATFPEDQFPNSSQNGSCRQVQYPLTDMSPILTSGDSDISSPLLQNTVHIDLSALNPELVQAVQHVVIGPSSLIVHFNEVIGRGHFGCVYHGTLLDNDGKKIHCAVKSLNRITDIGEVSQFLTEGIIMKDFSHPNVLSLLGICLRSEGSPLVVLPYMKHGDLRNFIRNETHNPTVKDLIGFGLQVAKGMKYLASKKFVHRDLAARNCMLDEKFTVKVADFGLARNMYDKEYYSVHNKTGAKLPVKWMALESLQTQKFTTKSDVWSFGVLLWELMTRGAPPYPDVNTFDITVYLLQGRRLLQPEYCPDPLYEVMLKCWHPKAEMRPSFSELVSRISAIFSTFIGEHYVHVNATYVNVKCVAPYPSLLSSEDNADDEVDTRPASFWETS
T2 sequence (P08581 25-1390 D1228N): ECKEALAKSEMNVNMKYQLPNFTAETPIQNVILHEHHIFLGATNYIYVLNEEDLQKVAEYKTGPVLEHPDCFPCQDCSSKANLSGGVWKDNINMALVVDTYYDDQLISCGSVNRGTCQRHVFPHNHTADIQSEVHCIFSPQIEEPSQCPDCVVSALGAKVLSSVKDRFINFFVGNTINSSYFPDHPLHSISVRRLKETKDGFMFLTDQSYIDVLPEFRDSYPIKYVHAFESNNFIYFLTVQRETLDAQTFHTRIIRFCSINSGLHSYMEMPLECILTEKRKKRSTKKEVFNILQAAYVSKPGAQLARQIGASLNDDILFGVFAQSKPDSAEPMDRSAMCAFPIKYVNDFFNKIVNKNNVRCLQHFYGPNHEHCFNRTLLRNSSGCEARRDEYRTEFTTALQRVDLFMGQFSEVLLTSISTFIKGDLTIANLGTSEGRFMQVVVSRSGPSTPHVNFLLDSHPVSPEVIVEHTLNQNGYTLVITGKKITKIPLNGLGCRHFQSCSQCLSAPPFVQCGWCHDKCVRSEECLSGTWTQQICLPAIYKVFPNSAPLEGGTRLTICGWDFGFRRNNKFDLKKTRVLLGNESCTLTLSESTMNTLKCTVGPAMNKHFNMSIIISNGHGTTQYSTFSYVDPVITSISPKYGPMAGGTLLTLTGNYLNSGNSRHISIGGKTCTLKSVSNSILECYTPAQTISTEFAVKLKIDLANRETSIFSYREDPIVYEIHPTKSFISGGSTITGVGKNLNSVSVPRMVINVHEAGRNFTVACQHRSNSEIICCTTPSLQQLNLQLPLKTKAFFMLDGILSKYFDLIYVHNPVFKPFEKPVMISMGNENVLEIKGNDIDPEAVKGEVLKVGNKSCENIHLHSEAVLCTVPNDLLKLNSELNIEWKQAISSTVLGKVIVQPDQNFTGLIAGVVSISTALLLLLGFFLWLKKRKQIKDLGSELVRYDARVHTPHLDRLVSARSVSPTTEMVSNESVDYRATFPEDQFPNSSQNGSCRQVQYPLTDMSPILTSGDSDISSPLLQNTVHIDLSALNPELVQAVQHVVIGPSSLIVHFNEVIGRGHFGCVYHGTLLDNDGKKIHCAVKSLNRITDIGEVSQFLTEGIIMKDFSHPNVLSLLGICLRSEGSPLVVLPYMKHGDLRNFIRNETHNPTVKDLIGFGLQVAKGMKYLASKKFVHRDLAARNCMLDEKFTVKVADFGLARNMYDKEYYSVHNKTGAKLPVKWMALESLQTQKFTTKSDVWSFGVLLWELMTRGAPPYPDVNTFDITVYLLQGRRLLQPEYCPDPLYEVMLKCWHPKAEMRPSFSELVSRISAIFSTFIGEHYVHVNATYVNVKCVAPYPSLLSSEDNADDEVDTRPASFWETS
T3 sequence (P08581 whole entry, change not shown, the tested form may be a part): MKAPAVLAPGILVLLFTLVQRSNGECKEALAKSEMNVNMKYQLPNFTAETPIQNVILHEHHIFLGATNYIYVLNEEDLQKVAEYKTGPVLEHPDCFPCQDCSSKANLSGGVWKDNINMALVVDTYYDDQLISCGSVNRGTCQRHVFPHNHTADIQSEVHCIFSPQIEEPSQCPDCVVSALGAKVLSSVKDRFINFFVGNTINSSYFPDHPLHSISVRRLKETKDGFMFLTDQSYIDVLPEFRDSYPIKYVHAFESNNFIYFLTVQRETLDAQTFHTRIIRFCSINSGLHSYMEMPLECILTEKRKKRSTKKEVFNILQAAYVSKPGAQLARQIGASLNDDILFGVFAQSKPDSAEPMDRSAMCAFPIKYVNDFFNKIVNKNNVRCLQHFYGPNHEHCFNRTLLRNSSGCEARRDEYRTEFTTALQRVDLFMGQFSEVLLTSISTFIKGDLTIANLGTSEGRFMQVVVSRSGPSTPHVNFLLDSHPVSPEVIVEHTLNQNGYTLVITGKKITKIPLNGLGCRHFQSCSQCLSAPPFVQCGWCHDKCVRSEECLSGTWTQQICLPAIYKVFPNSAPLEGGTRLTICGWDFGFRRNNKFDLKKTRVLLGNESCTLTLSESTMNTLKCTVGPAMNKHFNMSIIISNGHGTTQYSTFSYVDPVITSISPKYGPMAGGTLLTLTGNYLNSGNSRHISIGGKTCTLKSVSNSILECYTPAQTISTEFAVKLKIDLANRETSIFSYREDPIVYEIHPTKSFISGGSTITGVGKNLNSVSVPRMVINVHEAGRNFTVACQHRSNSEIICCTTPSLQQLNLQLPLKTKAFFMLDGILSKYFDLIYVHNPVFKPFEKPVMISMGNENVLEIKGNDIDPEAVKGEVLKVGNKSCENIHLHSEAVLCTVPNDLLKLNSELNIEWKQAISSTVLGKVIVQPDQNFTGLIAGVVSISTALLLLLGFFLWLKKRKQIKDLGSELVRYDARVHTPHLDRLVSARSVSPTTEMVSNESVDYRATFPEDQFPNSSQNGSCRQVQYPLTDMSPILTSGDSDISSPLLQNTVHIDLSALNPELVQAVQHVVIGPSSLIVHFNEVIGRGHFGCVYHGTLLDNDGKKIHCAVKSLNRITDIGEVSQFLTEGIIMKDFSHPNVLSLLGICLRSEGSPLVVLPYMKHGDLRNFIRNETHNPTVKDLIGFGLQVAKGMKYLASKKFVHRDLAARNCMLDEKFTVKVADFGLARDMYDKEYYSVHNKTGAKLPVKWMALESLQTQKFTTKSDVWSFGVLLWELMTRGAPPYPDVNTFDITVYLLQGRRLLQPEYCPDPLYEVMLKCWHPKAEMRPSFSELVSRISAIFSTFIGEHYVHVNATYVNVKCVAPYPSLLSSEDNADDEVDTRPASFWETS

As to `COc1cc2nccc(Oc3c(F)cc(NC(=O)c4cnccc4OC4CC4)cc3F)c2cn1` [Example 96, 4-cyclopropoxy-N-{3,5-difluoro-4-[(7-methoxy-1,6-naphthyridin-4-yl)oxy]phenyl}pyridine-3-carboxamide], the half-inhibitory concentration (IC50) on MET and on MET D1228N was at most 100 nM each time. Further, the EC50 (on Ba/F3-TPR-MET cells; in experiment [1]) was 100 to 1000 nM in each case.
Consider `COCCOc1ccc2c(Oc3c(F)cc(NC(=O)c4nnccc4OC4CC4)cc3F)ccnc2c1` [Example 120, 4-cyclopropoxy-N-(3,5-difluoro-4-((7-(2-methoxyethoxy)quinolin-4-yl)oxy)phenyl)pyridazine-3-carboxamide], for which the IC50 on MET and at MET D1228N was at most 100 nM throughout. The EC50 (at Ba/F3-TPR-MET cells; in experiment [1]) was 100 to 1000 nM in each case.
As for `CNCCOc1cc2nccc(Oc3c(F)cc(NC(=O)c4cnc(C)cc4OC)cc3F)c2cc1OC` [Example 45, N-(3,5-difluoro-4-((6-methoxy-7-(2-(methylamino)ethoxy)quinolin-4-yl)oxy)phenyl)-4-methoxy-6-methylpyridine-3-carboxamide], the IC50 on MET and on MET D1228N was at most 100 nM throughout. The EC50 (at Ba/F3-TPR-MET cells; in experiment [1]) was 100 to 1000 nM each time.
With `CCc1ccncc1C(=O)Nc1cc(F)c(Oc2ccnc3cc(OCCNC)c(OC)cc23)c(F)c1` [Example 49, N-(3,5-difluoro-4-((6-methoxy-7-(2-(methylamino)ethoxy)quinolin-4-yl)oxy)phenyl)-4-ethylpyridine-3-carboxamide], the IC50 on MET and on MET D1228N was at most 100 nM in each case. Also, the half-maximal effective concentration (EC50) (at Ba/F3-TPR-MET cells; in experiment [1]) was 100 to 1000 nM in each case.
Consider `COCCOc1ccc2c(Oc3c(F)cc(NC(=O)c4cnccc4OC4CC4)cc3F)ccnc2c1` [Example 105, 4-cyclopropoxy-N-(3,5-difluoro-4-{[7-(2-methoxyethoxy)quinolin-4-yl]oxy}phenyl)pyridine-3-carboxamide], for which the IC50 on MET and on MET D1228N was at most 100 nM each time. Besides, the EC50 was 100 to 1000 nM on Ba/F3-TPR-MET cells and at most 100 nM in experiment [1].
With `COc1cc2c(Oc3c(F)cc(NC(=O)c4cnccc4OC4CC4)cc3F)ccnc2cc1OC[C@H](C)O` [Example 98, 4-cyclopropoxy-N-[3,5-difluoro-4-({7-[(2S)-2-hydroxypropoxy]-6-methoxyquinolin-4-yl}oxy)phenyl]pyridine-3-carboxamide], the IC50 on MET and on MET D1228N was at most 100 nM in each case. Besides, the EC50 (on Ba/F3-TPR-MET cells; in experiment [1]) was at most 100 nM in each case.
Take `COc1cc2nccc(Oc3c(F)cc(NC(=O)c4cnccc4OC)cc3F)c2cc1OCC(C)(C)O` [Example 125, N-(3,5-difluoro-4-{[6-(2-hydroxy-2-methylpropoxy)-7-methoxyquinolin-4-yl]oxy}phenyl)-4-methoxypyridine-3-carboxamide]: the IC50 at MET and at MET D1228N was at most 100 nM throughout. The EC50 (on Ba/F3-TPR-MET cells; in experiment [1]) was at most 100 nM each time.
With `COc1cc2c(Oc3c(F)cc(NC(=O)c4cnccc4OC)cc3F)ccnc2cc1OC(F)(F)F` [Example 37, N-(3,5-difluoro-4-((6-methoxy-7-(trifluoromethoxy)quinolin-4-yl)oxy)phenyl)-4-methoxypyridine-3-carboxamide], the IC50 at MET and on MET D1228N was at most 100 nM each time. Besides, the EC50 (on Ba/F3-TPR-MET cells; in experiment [1]) was 100 to 1000 nM in each case.

As a reminder, the IC50 is the concentration that inhibits the measured activity by half. As usually defined, the EC50 is the concentration at which the effect is half-maximal. Lower therefore signals greater potency.
